Assay results taken from patent US11458189B2, “Cytoprotective drugs” (BALMES TRANSPLANTATION, priority 2017, dated 2022).
Starred links: 1 amine or outer side, 2 acyl side, 3 side chain; linkers in the order of their positions; H or OH if unused. Positions of bridges follow the written chain, without caps; N, C: chain ends. Non-standard residues stand in square brackets, D forms with d. Residues, ends and D or L forms follow the SMILES beside them. *: point of attachment. hTyr(3S-OH,4S-OH,3'-OSO3H) = N[C@H](C(=O)O)[C@H](O)[C@@H](O)c1ccc(O)c(OS(=O)(=O)O)c1; Orn(4R-OH,5R-OH) = O=C([C@H](C[C@@H](O)[C@@H](O)N[*:3])N[*:1])[*:2]; Pro(3S-OH,4S-Me) = C[C@H]1CN[C@H](C(=O)O)[C@H]1O; X1 = CCCCCOc1ccc(-c2cc(-c3ccc(C(=O)*)cc3)no2)cc1; Gln(3R-OH) = NC(=O)C[C@@H](O)[C@H](N)C(=O)O; Hyp = O=C(O)[C@@H]1C[C@@H](O)CN1

System: Human Renal Glomerular Endothelial Cells (HRGEC)
Assay: Oxygen and glucose deprivation followed by replenishment, cell survival (calcein AM), HRGEC
Type: cell-based
Description: Anidulafungin and micafungin were tested on Human Renal Glomerular Endothelial Cells (HRGEC, Innoprot P10665), on Human Renal Proximal Tubular Epithelial Cells (HRPTEpiC, Innoprot P10662), on Human Astrocytes (HA, caltag SC-1800), on Human Cardiac Microvascular Endothelial Cells (HCMEC, Caltag SC-6000), on Human Hepatic Sinusoidal Endothelial Cells (HHSEC, Caltag SC-5000), on Rat Primary Kidney Glomerular Endothelial cells (Cellbiologics, RN-6014G) and on Bovine Brain Microvascular Endothelial Cells (BBMEC, Caltag SC-B100).
In a first phase, these isolated, purified and cryopreserved cells are thawed and multiplied according to the supplier's recommendations in T75 or T175 flasks pre-coated with 2 μg of fibronectin/[…] (CORNING) for HRGEC, HCMEC, HHSEC and BBMEC, or 2 μg poly-L-lysin/cm^2 (Caltag SC-0403) for HRPTEpiC and HA, or 15 mL/flask 175 cm^2 gelatin-based solution (Cellbiologics) in the presence of endothelial cell supplemented growth medium ECM (P60104, INNOPROT, Caltag, SC-1001) for HRGEC, HCMEC, HHSEC, RPKGEC or BBMEC, or astrocyte cell supplemented growth medium AM (Caltag SC-1801) for HA or epithelial cell supplemented growth medium EpiCM (P60106, INNOPROT) for HRPTEpiC, at 37° C. under 5% CO2 and saturated humidity until their confluency. They are then harvested by trypsinization according to the method described by the supplier for exactly 5 minutes and then reseeded in new flasks a maximum of three times.
To carry out the oxygen and glucose deprivation test followed by their replenishment, the cells will be seeded in 96-well black plates with transparent flat bottom (GREINER). Once a sufficient number of cells has been obtained to allow seeding of 2000 to 15000 cells per well of 96-well plates depending on the cell type, the cells are seeded in these 96-well plates previously coated with an extracellular matrix as listed above for the flasks. The cells are cultured for 5 to 8 days according to the cell type, in the presence of the same growth medium as in the flask as described above except for HRGEC and HRPTEpiC for which DMEM (DUTSCHER) with 1 g/L of supplemented glucose is used, at 37° C. under 5% CO2 and saturated humidity to obtain confluency.
On the first day of oxygen and glucose deprivation, (5th, 6th, 7th or 8th day of culture), the culture conditions are drastically changed. The medium of all plates is removed and replaced by DMEM (DUTSCHER) medium without glucose and supplemented only with 1% penicillin-streptomycin (DUTSCHER). Anidulafungin or micafungin dissolved in dimethyl sulfoxide (DMSO) is then added to each well at the desired concentration, resulting in a maximum of 1% DMSO, and the plates are placed under hypoxia at <1% 02 and 5% CO2 at 37° C. for 24 hours of culture. Each compound was tested in a concentration range.
After 24 hours, the growth medium is changed and replaced by a richer medium, DMEM (DUTSCHER) at 1 g/L glucose and 2% FBS (INNOPROT) and 1% penicillin-streptomycin (DUTSCHER). These media will have been pre-equilibrated at 37° C. in advance. The cells are then returned to culture at 37° C. under 20% 02 and 5% CO2 for 22h.
After 22 hours of reoxygenation, the potential protective effect of anidulafungin or micafungin is measured by a cell viability test using calcein AM (CORNING), which is a dye substrate. The calcein AM can easily cross the cell membrane of the viable cells. The AM ester groups mask the part of the molecule that chelates calcium. Once inside the cells, the (non-fluorescent) calcein AM is hydrolyzed to (fluorescent) calcein by endogenous esterases. The resulting calcein molecule binds to calcium inside the cell and remains trapped inside the cell. These molecules emit strong green fluorescence when subjected to […] of a particular wavelength (495 nm). Since dead cells lack esterase activity, only living cells are labelled.
This cell viability test is performed in two steps. […]

Structure (SMILES): CCCCCOc1ccc(-c2cc(-c3ccc(C(=O)N[C@H]4C[C@@H](O)[C@@H](O)NC(=O)[C@@H]5[C@@H](O)[C@@H](C)CN5C(=O)[C@H]([C@H](O)CC(N)=O)NC(=O)[C@H]([C@H](O)[C@@H](O)c5ccc(O)c(OS(=O)(=O)O)c5)NC(=O)[C@@H]5C[C@@H](O)CN5C(=O)[C@H]([C@@H](C)O)NC4=O)cc3)no2)cc1 [Micafungin, {5-[(1S,2S)-2-[(3S,6S,9S,11R,15S,18S,20R,21R,24S,25S,26S)-3-[(1R)-2-carbamoyl-1-hydroxyethyl]-11,20,21,25-tetrahydroxy-15-[(1R)-1-hydroxyethyl]-26-methyl-2,5,8,14,17,23-hexaoxo-18-[(4-{5-[4-(pentyloxy)phenyl]-1,2-oxazol-3-yl}benzene)amido]-1,4,7,13,16,22-hexaazatricyclo[22.3.0.0]heptacosan-6-yl]-1,2-dihydroxyethyl]-2-hydroxyphenyl}oxidanesulfonic acid] (X1-[Orn(4R-OH,5R-OH)]T[Hyp][hTyr(3S-OH,4S-OH,3'-OSO3H)][Gln(3R-OH)][Pro(3S-OH,4S-Me)]; lactam 1-C)
- Globalfluo assay 1 ([Micafungin] log μM −4): 11181240 arbitrary units
- Globalfluo assay 2 ([Micafungin] log μM −4): 11805530 arbitrary units
- Globalfluo assay 3 ([Micafungin] log μM −4): 11095570 arbitrary units
- Mean globalfluo ([Micafungin] log μM −4): 11360780 arbitrary units
- Survival rate (%) ([Micafungin] log μM −4): 37%
- Globalfluo assay 1 ([Micafungin] log μM −4.124939): 12113050 arbitrary units
- Globalfluo assay 2 ([Micafungin] log μM −4.124939): 11168770 arbitrary units
- Globalfluo assay 3 ([Micafungin] log μM −4.124939): 11691720 arbitrary units
- Mean globalfluo ([Micafungin] log μM −4.124939): 11657847 arbitrary units
- Survival rate (%) ([Micafungin] log μM −4.124939): 38%
- Globalfluo assay 1 ([Micafungin] log μM −4.30103): 10705920 arbitrary units
- Globalfluo assay 2 ([Micafungin] log μM −4.30103): 12585990 arbitrary units
- Globalfluo assay 3 ([Micafungin] log μM −4.30103): 12661760 arbitrary units
- Mean globalfluo ([Micafungin] log μM −4.30103): 11984557 arbitrary units
- Survival rate (%) ([Micafungin] log μM −4.30103): 40%
- Globalfluo assay 1 ([Micafungin] log μM −4.39794): 12034270 arbitrary units
- Globalfluo assay 2 ([Micafungin] log μM −4.39794): 11904770 arbitrary units
- Globalfluo assay 3 ([Micafungin] log μM −4.39794): 11704580 arbitrary units
- Mean globalfluo ([Micafungin] log μM −4.39794): 11881207 arbitrary units
- Survival rate (%) ([Micafungin] log μM −4.39794): 39%
- Globalfluo assay 1 ([Micafungin] log μM −4.522879): 9416001 arbitrary units
- Globalfluo assay 2 ([Micafungin] log μM −4.522879): 11987430 arbitrary units
- Globalfluo assay 3 ([Micafungin] log μM −4.522879): 10070420 arbitrary units
- Mean globalfluo ([Micafungin] log μM −4.522879): 10491284 arbitrary units
- Survival rate (%) ([Micafungin] log μM −4.522879): 34%
- Globalfluo assay 1 ([Micafungin] log μM −4.60206): 10458840 arbitrary units
- Globalfluo assay 2 ([Micafungin] log μM −4.60206): 10594720 arbitrary units
- Globalfluo assay 3 ([Micafungin] log μM −4.60206): 8636463 arbitrary units
- Mean globalfluo ([Micafungin] log μM −4.60206): 9896674 arbitrary units
- Survival rate (%) ([Micafungin] log μM −4.60206): 31%
- Globalfluo assay 1 ([Micafungin] log μM −4.69897): 8790971 arbitrary units
- Globalfluo assay 2 ([Micafungin] log μM −4.69897): 10993750 arbitrary units
- Globalfluo assay 3 ([Micafungin] log μM −4.69897): 9050581 arbitrary units
- Mean globalfluo ([Micafungin] log μM −4.69897): 9611767 arbitrary units
- Survival rate (%) ([Micafungin] log μM −4.69897): 30%
- Globalfluo assay 1 ([Micafungin] log μM −4.823909): 9039973 arbitrary units
- Globalfluo assay 2 ([Micafungin] log μM −4.823909): 8208392 arbitrary units
- Globalfluo assay 3 ([Micafungin] log μM −4.823909): 7686254 arbitrary units
- Mean globalfluo ([Micafungin] log μM −4.823909): 8311540 arbitrary units
- Survival rate (%) ([Micafungin] log μM −4.823909): 25%
- Globalfluo assay 1 ([Micafungin] log μM −5): 5367938 arbitrary units
- Globalfluo assay 2 ([Micafungin] log μM −5): 7594623 arbitrary units
- Globalfluo assay 3 ([Micafungin] log μM −5): 5742300 arbitrary units
- Mean globalfluo ([Micafungin] log μM −5): 6234954 arbitrary units
- Survival rate (%) ([Micafungin] log μM −5): 16%
- Globalfluo assay 1 ([Micafungin] log μM −5.09691): 5198634 arbitrary units
- Globalfluo assay 2 ([Micafungin] log μM −5.09691): 5680528 arbitrary units
- Globalfluo assay 3 ([Micafungin] log μM −5.09691): 4518691 arbitrary units
- Mean globalfluo ([Micafungin] log μM −5.09691): 5132618 arbitrary units
- Survival rate (%) ([Micafungin] log μM −5.09691): 11%
- Globalfluo assay 1 ([Micafungin] log μM −5.221849): 5545222 arbitrary units
- Globalfluo assay 2 ([Micafungin] log μM −5.221849): 4844574 arbitrary units
- Globalfluo assay 3 ([Micafungin] log μM −5.221849): 4333143 arbitrary units
- Mean globalfluo ([Micafungin] log μM −5.221849): 4907646 arbitrary units
- Survival rate (%) ([Micafungin] log μM −5.221849): 10%
- Globalfluo assay 1 ([Micafungin] log μM −5.39794): 3889914 arbitrary units
- Globalfluo assay 2 ([Micafungin] log μM −5.39794): 3964004 arbitrary units
- Globalfluo assay 3 ([Micafungin] log μM −5.39794): 4064339 arbitrary units
- Mean globalfluo ([Micafungin] log μM −5.39794): 3972752 arbitrary units
- Survival rate (%) ([Micafungin] log μM −5.39794): 7%
- Globalfluo assay 1 ([Micafungin] log μM −5.69897): 3399775 arbitrary units
- Globalfluo assay 2 ([Micafungin] log μM −5.69897): 3118863 arbitrary units
- Globalfluo assay 3 ([Micafungin] log μM −5.69897): 3166056 arbitrary units
- Mean globalfluo ([Micafungin] log μM −5.69897): 3228231 arbitrary units
- Survival rate (%) ([Micafungin] log μM −5.69897): 4%
- Globalfluo assay 1 ([Micafungin] log μM −6): 3157528 arbitrary units
- Globalfluo assay 2 ([Micafungin] log μM −6): 2851345 arbitrary units
- Globalfluo assay 3 ([Micafungin] log μM −6): 2667237 arbitrary units
- Mean globalfluo ([Micafungin] log μM −6): 2892037 arbitrary units
- Survival rate (%) ([Micafungin] log μM −6): 2%
- Globalfluo assay 1 ([Micafungin] log μM −6.30103): 2192241 arbitrary units
- Globalfluo assay 2 ([Micafungin] log μM −6.30103): 2496288 arbitrary units
- Globalfluo assay 3 ([Micafungin] log μM −6.30103): 2306718 arbitrary units
- Mean globalfluo ([Micafungin] log μM −6.30103): 2331749 arbitrary units
- Survival rate (%) ([Micafungin] log μM −6.30103): 0%
- Globalfluo assay 1 ([Micafungin] log μM −7): 2276775 arbitrary units
- Globalfluo assay 2 ([Micafungin] log μM −7): 2276419 arbitrary units
- Globalfluo assay 3 ([Micafungin] log μM −7): 1622516 arbitrary units
- Mean globalfluo ([Micafungin] log μM −7): 2058570 arbitrary units
- Survival rate (%) ([Micafungin] log μM −7): −1%
